Assays:
rat [1] = settings: Subchronic oral toxicity in rodents, wistar, Feed, dose end: 90 day, group: systemic
mouse [2] = settings: Carcinogenicity; cd1; Oral; Feed; dose end: 18 month; group: systemic; systemic / pathology gross / kidney / reduced size + systemic / pathology microscopic / kidney / inflammation + systemic / pathology …
rat [3] = settings: Multigenerational reproductive toxicity study, sprague dawley, Oral, Feed, dose end: 2 generation
rat [4] = settings: Multigenerational reproductive toxicity study, sprague dawley, Oral, Feed, dose end: 2 generation; remark: listed apart in the source
rat [5] = settings: Combined chronic toxicity/carcinogenicity, fischer, Oral, Feed, dose end: 24 month, group: systemic
rat [6] = settings: Subchronic oral toxicity in rodents, fischer, Feed, dose end: 13 week, group: systemic
mouse [7] = settings: Sub-acute repeat dose toxicity, cd1, Oral, Feed, dose end: 4 week, group: systemic
mouse [8] = settings: Carcinogenicity, other, Oral, Feed, dose end: 18 month, group: systemic
rat [9] = settings: Combined chronic toxicity/carcinogenicity, sprague dawley, Oral, Feed, dose end: 24 month, group: systemic
rat [10] = settings: Prenatal developmental toxicity study, other, Oral, Gavage/Intubation, dose end: 15 GD
rat [11] = settings: Multigenerational reproductive toxicity study, other, Oral, Feed, dose end: 2 generation
rabbit = settings: Prenatal developmental toxicity study, other, Oral, Gavage/Intubation, dose end: 19 GD
dog [12] = settings: Subchronic oral toxicity in nonrodent, beagle, Feed, dose end: 13 week, group: systemic
rat [13] = settings: Subchronic oral toxicity in rodents, other, Feed, dose end: 3 month, group: systemic, systemic / clinical chemistry / alkaline phosphatase (alp/alk) / alkaline phosphatase (alp/alk) + systemic / in life observation / body …
dog [14] = settings: Chronic toxicity, beagle, Oral, Feed, dose end: 52 week, group: systemic
[15] = systemic / pathology microscopic / kidney / inflammation + systemic / in life observation / mortality / mortality + systemic / pathology …
[16] = group: parental, systemic / organ weight / kidney / absolute + systemic / organ weight / kidney / relative to body weight
[17] = group: reproductive, reproductive / offspring survival early / dead fetuses / dead fetuses + reproductive / offspring survival early / litter size / litter size
[18] = group: offspring, developmental / offspring survival late / viability index / viability index
[19] = group: offspring, developmental / offspring survival late / viability index / viability index + systemic / in life observation / body weight / offspring (pup…
[20] = group: parental, systemic / organ weight / kidney / relative to body weight
[21] = group: parental, systemic / organ weight / kidney / relative to body weight + systemic / organ weight / kidney / absolute + systemic / pathology gross / …
[22] = systemic / in life observation / clinical signs / perineal soiling + systemic / organ weight / adrenal gland / relative to body weight + …
[23] = systemic / pathology microscopic / kidney / degeneration
[24] = systemic / pathology microscopic / kidney / degeneration + systemic / in life observation / body weight / body weight gain + systemic / in …
[25] = systemic / in life observation / body weight / body weight + systemic / organ weight / spleen / relative to body weight
[26] = systemic / pathology microscopic / liver / hypertrophy
[27] = systemic / pathology microscopic / liver / hypertrophy + systemic / clinical chemistry / albumin / albumin + systemic / clinical chemistry…
[28] = group: developmental, developmental / developmental malformation / bone / incomplete ossification
[29] = group: developmental, developmental / developmental malformation / bone / incomplete ossification + developmental / developmental malformation / bone / dumbbell …
[30] = group: maternal, systemic / in life observation / body weight / body weight gain + systemic / in life observation / food consumption / food consumption
[31] = group: offspring, developmental / developmental landmark / eye opening / eye opening + systemic / in life observation / body weight / offspring (pup) weight
[32] = group: parental, systemic / organ weight / liver / relative to body weight
[33] = group: developmental, developmental / developmental malformation / bone / full supernumerary
[34] = group: developmental, developmental / developmental malformation / bone / full supernumerary + developmental / developmental malformation / bone / extra …
[35] = group: maternal, systemic / in life observation / body weight / body weight gain + systemic / in life observation / food consumption / food consumption + …
[36] = systemic / clinical chemistry / alkaline phosphatase (alp/alk) / alkaline phosphatase (alp/alk) + systemic / organ weight / liver / absolute…
[37] = systemic / organ weight / liver / relative to body weight
[38] = systemic / hematology / anemia / anemia - nos + systemic / clinical chemistry / cholesterol / cholesterol + systemic / clinical chemistry / …

Nc1c(Cl)c(F)nc(OCC(=O)O)c1Cl [Fluroxypyr]
LEL (rat [1]; [15]): 750 mg/kg/day | LOAEL (rat [1]; [15]): 750 mg/kg/day | NEL (rat [1]; systemic / urinalysis / ph / ph + systemic / clinical chemistry / alanine aminotransferase (alt/sgpt) / alanine aminotransferase (alt/sgpt…): 80 mg/kg/day | LEL (mouse [2]): 1000 mg/kg/day | LOAEL (mouse [2]): 1000 mg/kg/day | NEL (mouse [2]): 300 mg/kg/day | NOAEL (mouse [2]): 300 mg/kg/day | LEL (rat [3]; group: offspring, developmental / developmental malformation / general / runts): 500 mg/kg/day | NEL (rat [3]; group: offspring, developmental / developmental malformation / general / runts + developmental / developmental malformation / eye / anophthalmia + …): 100 mg/kg/day | NOAEL (rat [3]; group: offspring, developmental / developmental malformation / general / runts + systemic / in life observation / body weight / offspring (pup) weight gain + …): 500 mg/kg/day | LOAEL (rat [3]; group: offspring, systemic / in life observation / body weight / offspring (pup) weight gain + systemic / in life observation / body weight / offspring (pup) …): 750 mg/kg/day | NOAEL (rat [3]; group: parental, systemic / organ weight / kidney / absolute + systemic / in life observation / body weight / body weight + systemic / in life observation / …): 100 mg/kg/day | LEL (rat [3]; [16]): 100 mg/kg/day | NEL (rat [3]; [16]): < 100 mg/kg/day | LOAEL (rat [3]; group: parental, systemic / organ weight / kidney / absolute + systemic / organ weight / kidney / relative to body weight + systemic / pathology microscopic…): 500 mg/kg/day | LEL (rat [3]; [17]): 750 mg/kg/day | LOAEL (rat [3]; [17]): 750 mg/kg/day | NEL (rat [3]; [17]): 500 mg/kg/day | NOAEL (rat [3]; [17]): 500 mg/kg/day | LEL (rat [4]; [18]): 500 mg/kg/day | LOAEL (rat [4]; [18]): 500 mg/kg/day | NEL (rat [4]; [19]): 100 mg/kg/day | NOAEL (rat [4]; [19]): 100 mg/kg/day | LEL (rat [4]; [20]): 100 mg/kg/day | NEL (rat [4]; [20]): < 100 mg/kg/day | LOAEL (rat [4]; [21]): 500 mg/kg/day | NOAEL (rat [4]; [21]): 100 mg/kg/day | LEL (rat [5]; [22]): 100 mg/kg/day | NEL (rat [5]; [22]): < 100 mg/kg/day | NOAEL (rat [5]; [22]): 100 mg/kg/day | LOAEL (rat [5]; systemic / organ weight / kidney / relative to body weight + systemic / pathology microscopic / kidney / nephropathy + systemic / organ …): 500 mg/kg/day | LEL (rat [6]; systemic / hematology / hemoglobin (hgb) / hemoglobin (hgb) + systemic / urinalysis / specific gravity/osmolality / specific gravity/…): 700 mg/kg/day | NEL (rat [6]; systemic / in life observation / body weight / body weight gain + systemic / organ weight / testes / absolute + systemic / hematology / …): 320 mg/kg/day | NOAEL (rat [6]; systemic / organ weight / brain / absolute + systemic / hematology / erythrocyte (rbc) count differential / erythrocyte (rbc) + systemic / …): 700 mg/kg/day | LOAEL (rat [6]; systemic / organ weight / brain / absolute + systemic / in life observation / body weight / body weight gain + systemic / organ weight / …): 1000 mg/kg/day | LEL (mouse [7]; [23]): 132 mg/kg/day | LOAEL (mouse [7]; [23]): 132 mg/kg/day | NEL (mouse [7]; [24]): 14 mg/kg/day | NOAEL (mouse [7]; [24]): 14 mg/kg/day

CC1=NNC(=O)N(/N=C/c2cccnc2)C1 [Pymetrozine]
NOAEL (mouse [8]; systemic / in life observation / body weight / body weight + systemic / organ weight / liver / relative to body weight + systemic / …): 12 mg/kg/day | LEL (mouse [8]; [25]): 1.2 mg/kg/day | NEL (mouse [8]; [25]): < 1.2 mg/kg/day | LOAEL (mouse [8]; systemic / organ weight / liver / relative to body weight + systemic / pathology microscopic / liver / hypertrophy + systemic / pathology …): 250 mg/kg/day | LEL (rat [9]; [26]): 3.76 mg/kg/day | LOAEL (rat [9]; [26]): 3.76 mg/kg/day | NEL (rat [9]; [27]): 0.377 mg/kg/day | NOAEL (rat [9]; [27]): 0.377 mg/kg/day | LEL (rat [10]; [28]): 30 mg/kg/day | NEL (rat [10]; [28]): < 30 mg/kg/day | LOAEL (rat [10]; [29]): 300 mg/kg/day | NOAEL (rat [10]; [29]): 100 mg/kg/day | LEL (rat [10]; [30]): 100 mg/kg/day | LOAEL (rat [10]; [30]): 100 mg/kg/day | NEL (rat [10]; [30]): 30 mg/kg/day | NOAEL (rat [10]; [30]): 30 mg/kg/day | LEL (rat [11]; [31]): 100 mg/kg/day | LOAEL (rat [11]; [31]): 100 mg/kg/day | NEL (rat [11]; [31]): 10 mg/kg/day | NOAEL (rat [11]; [31]): 10 mg/kg/day | LEL (rat [11]; [32]): 1.7 mg/kg/day | NEL (rat [11]; [32]): < 1.7 mg/kg/day | LOAEL (rat [11]; group: parental, systemic / pathology microscopic / liver / hypertrophy): 13.9 mg/kg/day | NOAEL (rat [11]; group: parental, systemic / pathology microscopic / liver / hypertrophy + systemic / in life observation / body weight / body weight + systemic / in life …): 1.4 mg/kg/day | LEL (rabbit; [33]): 75 mg/kg/day | LOAEL (rabbit; [33]): 75 mg/kg/day | NEL (rabbit; [34]): 10 mg/kg/day | NOAEL (rabbit; [34]): 10 mg/kg/day | LEL (rabbit; [35]): 75 mg/kg/day | LOAEL (rabbit; [35]): 75 mg/kg/day | NEL (rabbit; [35]): 10 mg/kg/day | NOAEL (rabbit; [35]): 10 mg/kg/day | LOAEL (dog [12]; [36]): 14 mg/kg/day | NOAEL (dog [12]; [36]): 3.12 mg/kg/day | LEL (dog [12]; [37]): 3.12 mg/kg/day | NEL (dog [12]; [37]): < 3.12 mg/kg/day | LEL (rat [13]): 360 mg/kg/day | LOAEL (rat [13]): 360 mg/kg/day | NOAEL (rat [13]): 32.5 mg/kg/day | LEL (dog [14]; systemic / clinical chemistry / cholesterol / cholesterol + systemic / organ weight / liver / absolute + systemic / organ weight / liver / …): 5.33 mg/kg/day | NEL (dog [14]; [38]): 0.57 mg/kg/day | NOAEL (dog [14]; [38]): 5.33 mg/kg/day | LOAEL (dog [14]; systemic / hematology / anemia / anemia - nos + systemic / pathology microscopic / intestine large / [other] + systemic / pathology …): 27.8 mg/kg/day

— EPA's ToxRefDB 2
